Entries after “also recorded” stand apart in the source; their conditions may differ.
Experiments:
GCN5 = molecular target: T1, GCN5 (Homo sapiens, UniProt Q92830); test: GCN5 HAT activity assay; assay type: biochemical; conditions: H3 peptide
T1 construct: made in house; host or cells: U-2 OS cells overexpressing Ad-GCN5; FLAG immunoprecipitation, elution with 3×FLAG peptide
Protocol: For determination of GCN5 HAT activity U-2 OS cells overexpressing Ad-GCN5 were treated with SR-18292 ([…]) for 18 h. Cells were lysed with buffer B (20 mM HEPES-KOH (pH 7.9), 125 mM NaCl, 1 mM EDTA, 1 mM DTT, 1% IGEPAL (v/v), 10% glycerol (v/v), 5 mM NaF, 5 mM β-glycerophosphate, 5 mM sodium butyrate and 10 mM nicotinamide), supplemented with Protease Inhibitor Cocktail. FLAG-GCN5 was immunoprecipitated with FLAG beads overnight at 4° C. following multiple washes with lysis buffer. GCN5 was then eluted using 3×FLAG peptide and the purified protein was used to determine HAT activity using the HAT Inhibitor Screening Assay Kit (Cayman Chemicals) per manufacturer instructions. To determine the potential effect of SR-18292 on GCN5 activity in vitro, GCN5 was purified from U-2 OS cells in a similar manner but without treatment with SR-18292.

PGC-1α = molecular target: T2, PGC-1α (Mus musculus, UniProt O70343); test: Mass spectrometry of acetylated PGC-1α lysine residues; assay type: cell-based; set-up: expressed in transfected cells; host or cells: U-2 OS cells infected with Ad-PGC-1α and Ad-GCN5; conditions: U-2 OS, Ad-PGC-1α and Ad-GCN5, 18 h
T2 sequence (O70343 1-797): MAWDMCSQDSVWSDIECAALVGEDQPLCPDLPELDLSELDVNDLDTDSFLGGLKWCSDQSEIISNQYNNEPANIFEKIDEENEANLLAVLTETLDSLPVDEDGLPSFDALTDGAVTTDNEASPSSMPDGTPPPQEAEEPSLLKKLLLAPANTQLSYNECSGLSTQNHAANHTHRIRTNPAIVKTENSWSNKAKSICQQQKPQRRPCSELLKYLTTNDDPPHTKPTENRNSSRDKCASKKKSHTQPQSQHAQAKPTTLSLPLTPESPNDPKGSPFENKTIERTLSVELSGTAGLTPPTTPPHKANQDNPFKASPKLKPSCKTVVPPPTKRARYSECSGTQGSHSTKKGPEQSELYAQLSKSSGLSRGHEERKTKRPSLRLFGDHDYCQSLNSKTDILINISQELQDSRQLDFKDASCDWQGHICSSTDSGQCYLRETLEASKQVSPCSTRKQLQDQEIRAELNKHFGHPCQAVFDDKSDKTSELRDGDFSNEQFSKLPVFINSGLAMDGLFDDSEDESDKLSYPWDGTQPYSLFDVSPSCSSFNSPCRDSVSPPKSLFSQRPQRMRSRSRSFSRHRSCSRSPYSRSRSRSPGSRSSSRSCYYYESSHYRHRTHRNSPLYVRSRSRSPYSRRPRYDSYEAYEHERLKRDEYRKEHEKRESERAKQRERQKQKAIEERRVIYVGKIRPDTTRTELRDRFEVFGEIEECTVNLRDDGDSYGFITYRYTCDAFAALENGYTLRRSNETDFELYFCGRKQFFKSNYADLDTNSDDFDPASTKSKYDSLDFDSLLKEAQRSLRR
Protocol: Gel bands were dehydrated with acetonitrile, dried and resuspended in 50 mM ammonium bicarbonate (pH 8.0) containing 500 ng of sequencing-grade trypsin (Promega) and incubated at 37° C. for 8 hours. Digested samples were then loaded onto StageTips and desalted. Peptides were eluted with 50% acetonitrile, 5% formic acid, dried using a Speed-Vac apparatus, and resuspended in 25 μl of HEPES, pH 8.5. Peptides were labeled with 6-plex tandem mass tag (TMT) reagents (Thermo Scientific, Rockford, Ill.). After 1 hour of incubation at room temperature, the reaction was quenched with hydroxylamine and acidification with formic acid to pH˜2. TMT labeled peptides were combined, desalted by StageTips, dried and resuspended in 10 μl of 1% formic acid. All spectra were acquired using an Oribtrap Fusion mass spectrometer (Thermo Scientific) in line with an Easy-nLC 1200 (Thermo Fisher Scientific) ultra-high pressure liquid chromatography (UHPLC) pump. […] For MS3 based TMT quantitation, MS2 spectra were collected at an AGC of 4000, max injection time of 150 ms, and CID collision energy set at 35%. […] For quantification, a 0.03 m/z window centered on the theoretical DA value of each reporter ion was utilized for the nearest maximal signal intensity. […]

T1 sequence (Q92830 whole entry, species assumed): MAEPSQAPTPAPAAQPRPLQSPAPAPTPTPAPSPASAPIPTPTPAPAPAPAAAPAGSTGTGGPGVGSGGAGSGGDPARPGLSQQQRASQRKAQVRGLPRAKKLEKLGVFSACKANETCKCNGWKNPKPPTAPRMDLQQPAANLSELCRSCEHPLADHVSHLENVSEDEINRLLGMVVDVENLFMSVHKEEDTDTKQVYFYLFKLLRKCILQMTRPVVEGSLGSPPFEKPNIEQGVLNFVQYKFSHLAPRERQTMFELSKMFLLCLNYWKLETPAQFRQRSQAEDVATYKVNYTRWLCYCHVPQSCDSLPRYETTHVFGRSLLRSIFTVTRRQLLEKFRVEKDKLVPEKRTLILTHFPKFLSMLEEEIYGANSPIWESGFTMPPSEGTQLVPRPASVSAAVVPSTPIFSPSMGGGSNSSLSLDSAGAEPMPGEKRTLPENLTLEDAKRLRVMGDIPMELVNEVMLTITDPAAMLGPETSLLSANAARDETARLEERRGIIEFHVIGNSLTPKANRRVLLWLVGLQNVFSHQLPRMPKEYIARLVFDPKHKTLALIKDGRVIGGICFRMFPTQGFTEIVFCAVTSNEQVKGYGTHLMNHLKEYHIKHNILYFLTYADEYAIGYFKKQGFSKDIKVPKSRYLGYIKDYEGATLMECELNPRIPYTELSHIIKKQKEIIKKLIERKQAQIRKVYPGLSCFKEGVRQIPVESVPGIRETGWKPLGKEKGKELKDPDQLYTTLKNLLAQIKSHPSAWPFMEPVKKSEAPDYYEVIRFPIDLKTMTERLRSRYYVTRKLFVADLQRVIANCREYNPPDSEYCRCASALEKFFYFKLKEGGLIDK

In the case of `Cc1ccc(CN(CC(O)COc2cccc3[nH]ccc23)C(C)(C)C)cc1` (stereo not drawn) [SR-18292, 1-((1H-indol-4-yl)oxy)-3-(tert-butyl(4-methylbenzyl)amino)propan-2-ol], the “catalytic (HAT) activity of GCN5 immunoprecipitated from treated cells” value (GCN5; U-2 OS cells treated 18 h) is reported as “not changed; also recorded: not increased”, the “GCN5 HAT activity on in vitro treatment of IPed GCN5” value (GCN5; in vitro treatment) is reported as “did not result in increased activity; also recorded: not affected” and the “number of PGC-1α lysine residues with increased acetylation” value (PGC-1α) is reported as 7.
